Laboratory results: article PMC2966118 (The Journal of Biological Chemistry, 2010)

Molecular target: human recombinant TPC2 (hTPC2, HA-HsTPC2) (Homo sapiens, UniProt Q8NHX9)
Assay: single-channel recording in planar lipid bilayer, open probability
Format: biochemical

Chain of human recombinant TPC2 (hTPC2, HA-HsTPC2) (Q8NHX9 whole entry): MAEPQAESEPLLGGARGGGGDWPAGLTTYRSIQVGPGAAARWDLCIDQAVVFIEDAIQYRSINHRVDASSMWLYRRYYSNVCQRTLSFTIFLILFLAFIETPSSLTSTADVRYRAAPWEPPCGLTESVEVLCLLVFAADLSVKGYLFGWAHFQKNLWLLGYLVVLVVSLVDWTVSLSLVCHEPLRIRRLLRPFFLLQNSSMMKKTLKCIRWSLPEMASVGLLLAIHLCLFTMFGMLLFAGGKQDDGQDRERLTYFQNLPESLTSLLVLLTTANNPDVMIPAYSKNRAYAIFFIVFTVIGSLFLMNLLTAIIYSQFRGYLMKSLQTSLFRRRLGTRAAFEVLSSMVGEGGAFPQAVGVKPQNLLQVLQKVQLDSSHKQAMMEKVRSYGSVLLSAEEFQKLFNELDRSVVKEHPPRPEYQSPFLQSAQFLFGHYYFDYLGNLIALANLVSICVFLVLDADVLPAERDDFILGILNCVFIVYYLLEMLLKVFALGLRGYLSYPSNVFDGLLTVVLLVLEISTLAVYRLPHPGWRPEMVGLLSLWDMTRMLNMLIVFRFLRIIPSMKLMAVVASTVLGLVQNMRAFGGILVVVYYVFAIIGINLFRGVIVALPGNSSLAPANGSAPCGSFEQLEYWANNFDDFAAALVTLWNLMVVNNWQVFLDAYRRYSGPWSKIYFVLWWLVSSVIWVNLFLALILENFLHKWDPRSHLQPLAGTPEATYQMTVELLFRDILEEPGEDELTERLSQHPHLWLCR

EC50: 500 nM
Compound: Nc1ncnc2c1ncn2[C@@H]1O[C@H](COP(=O)(O)OP(=O)(O)OC[C@H]2O[C@@H]([n+]3cccc(C(=O)O)c3)[C@H](O)[C@@H]2O)[C@@H](O)[C@H]1OP(=O)(O)O [NAADP]
